What all share (test): NCI-60 one-dose SRB screening
Common to all, as to format: cell-based

Experiment [1] concerns HT29. The settings on record: Homo sapiens, HT-29, HT29, Colon Cancer, 10 µM one dose, 48 h, read-out: growth percentage.
For experiment [2], the system named is SNB-19. The settings on record: Homo sapiens, SNB-19, CNS Cancer, 10 µM one dose, 48 h, read-out: growth percentage.
Experiment [3] relates to UACC-257. As to conditions: Homo sapiens, UACC-257, Melanoma, 10 µM one dose, 48 h, read-out: growth percentage.
The subject of experiment [4] is PC-3. As to conditions: Homo sapiens, PC-3, Prostate Cancer, 10 µM one dose, 48 h, read-out: growth percentage.
Experiment [5] deals with MCF7. The settings on record: Homo sapiens, MCF7, Breast Cancer, 10 µM one dose, 48 h, read-out: growth percentage.
Experiment [6] has as its system RPMI-8226. As to conditions: Homo sapiens, RPMI-8226, Leukemia, 10 µM one dose, 48 h, read-out: growth percentage.
Experiment [7] has as its system OVCAR-4. The settings on record: Homo sapiens, OVCAR-4, Ovarian Cancer, 10 µM one dose, 48 h, read-out: growth percentage.
The subject of experiment [8] is MDA-MB-468. The settings on record: Homo sapiens, MDA-MB-468, Breast Cancer, 10 µM one dose, 48 h, read-out: growth percentage.
For experiment [9], the system named is COLO 205. As to conditions: Homo sapiens, COLO 205, Colon Cancer, 10 µM one dose, 48 h, read-out: growth percentage.
The test system of experiment [10] is SF-295. The settings on record: Homo sapiens, SF-295, CNS Cancer, 10 µM one dose, 48 h, read-out: growth percentage.
Experiment [11] concerns CCRF-CEM. The settings on record: Homo sapiens, Leukemia, 10 µM one dose, 48 h, read-out: growth percentage.
For experiment [12], the system named is SF-539. The settings on record: Homo sapiens, SF-539, CNS Cancer, 10 µM one dose, 48 h, read-out: growth percentage.
In experiment [13] the test system is NCI/ADR-RES. The settings on record: Homo sapiens, Ovarian Cancer, 10 µM one dose, 48 h, read-out: growth percentage.
Experiment [14] has as its system NCI-H322M. The settings on record: Homo sapiens, Non-Small Cell Lung Cancer, 10 µM one dose, 48 h, read-out: growth percentage.
Experiment [15] concerns ACHN. As to conditions: Homo sapiens, Renal Cancer, 10 µM one dose, 48 h, read-out: growth percentage.
Experiment [16] relates to SK-OV-3. The settings on record: Homo sapiens, SK-OV-3, Ovarian Cancer, 10 µM one dose, 48 h, read-out: growth percentage.
Experiment [17] relates to HOP-62. The settings on record: Homo sapiens, HOP-62, Non-Small Cell Lung Cancer, 10 µM one dose, 48 h, read-out: growth percentage.
Experiment [18] deals with SK-MEL-2. The settings on record: Homo sapiens, SK-MEL-2, Melanoma, 10 µM one dose, 48 h, read-out: growth percentage.
Experiment [19] has as its system SW-620. As to conditions: Homo sapiens, SW-620, Colon Cancer, 10 µM one dose, 48 h, read-out: growth percentage.
Experiment [20] has as its system BT-549. The settings on record: Homo sapiens, BT-549, Breast Cancer, 10 µM one dose, 48 h, read-out: growth percentage.
The test system of experiment [21] is SN12C. The settings on record: Homo sapiens, Renal Cancer, 10 µM one dose, 48 h, read-out: growth percentage.
The test system of experiment [22] is HCC-2998. The settings on record: Homo sapiens, HCC-2998, Colon Cancer, 10 µM one dose, 48 h, read-out: growth percentage.
The subject of experiment [23] is EKVX. The settings on record: Homo sapiens, Non-Small Cell Lung Cancer, 10 µM one dose, 48 h, read-out: growth percentage.

Among the data in publication PMC8880564, “Design, Synthesis, and Biological Evaluation of a Novel VEGFR-2 Inhibitor Based on a 1,2,5-Oxadiazole-2-Oxide Scaffold with MAPK Signaling Pathway Inhibition” (Pharmaceuticals, 2022) are activity values, retold here.

For `[O-][n+]1onc(-c2ccccc2)c1COc1ccc(Nc2ncnc3c2cnn3-c2ccccc2)cc1` [6a, 4-phenyl-3-((4-((1-phenyl-1H-pyrazolo[3,4-d]pyrimidin-4-yl)amino)phenoxy)methyl)-1,2,5-oxadiazole 2-oxide], the activity at 10 µM was found to be 96% in experiment [1]; 105% in [2]; 98.9% in experiment [3]; 98.1% in experiment [4]; 96.1% in experiment [5]; 104% in experiment [6]. For the same compound, the activity at 10 µM turned out to be 130% in experiment [7]; 107% in experiment [8]; 104% in experiment [9]; 98.4% in [10]; 91% in experiment [11]; 95.7% in experiment [12]. Moreover, the activity at 10 µM amounted to 102% in experiment [13]; 109% in [14]; 105% in [15]; 102% in experiment [16]; 107% in experiment [17]; 105% in [18]. Besides, the activity at 10 µM was determined as 106% in experiment [19]; 95.4% in [20]; 97.3% in [21]; 106% in [22]; 98.9% in experiment [23].
As for `Cc1nc(Nc2ccc(OCc3c(-c4ccccc4)no[n+]3[O-])cc2)c2cnn(-c3ccccc3)c2n1` [6b, 3-((4-((6-methyl-1-phenyl-1H-pyrazolo[3,4-d]pyrimidin-4-yl)amino)phenoxy)methyl)-4-phenyl-1,2,5-oxadiazole 2-oxide], the activity at 10 µM in experiment [1] stood at 106%; in [2], 99.3%; in experiment [3], 101%; in [4], 103%; in experiment [5], 92.4%; in [6] it was 114%. In addition, the activity at 10 µM in [7] was 102%; in experiment [8], 94.3%; in experiment [9], 114%; in [10], 97.1%; in experiment [11] it was 102%; in experiment [12], 102%. Also, the activity at 10 µM in [13] stood at 103%; in experiment [14], 99.5%; in experiment [15], 105%; in [16], 110%; in experiment [17] it was 103%; in experiment [18] it was 109%. Also, the activity at 10 µM in experiment [19] is 120%; in experiment [20], 95%; in [21] it was 101%; in [22], 108%; in [23], 93.1%.
Take `Cc1nn(-c2ccccc2)c2nc(CCl)[nH]c(=O)c12` [13b]: the activity at 10 µM in experiment [1] was found to be 106%; in experiment [2], 89.4%; in [3], 98.8%; in experiment [4], 102%; in [5] it was 16.4%; in experiment [7], 90.9%. Also, the activity at 10 µM came out at 26.6% in [8]; 110% in experiment [9]; 109% in [10]; 36.9% in experiment [12]; 102% in [13]; 103% in [14]. The activity at 10 µM was determined as 90.2% in experiment [15]; 105% in experiment [16]; 98.3% in experiment [17]; 97.9% in experiment [18]; 85.1% in [19]; 100% in [20]. For the same compound, the activity at 10 µM in experiment [21] was 95.7%; in experiment [22], 108%; in [23], 99.2%.
